From ChEMBL document CHEMBL1201862, “PubChem BioAssay data set” (2004)
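Each compound was tested at five concentrations against cells in 96-well plates for 48 hours. GI50 = concentration required for 50% inhibition of growth.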 Activity calls are given as the source filed them. Rule as the data show it: active = GI50 up to about 1.1 µM and inactive = higher.

Key:
Experiment in all cases: NCI-60 cell line screen, 48 h
OVCAR-3 = tested on: OVCAR-3
DU-145 = tested on: DU-145
OVCAR-8 = tested on: OVCAR-8
SF-539 = tested on: SF-539
T47D = tested on: T47D
MDA-MB-231 = tested on: MDA-MB-231
A498 = tested on: A498
PC-3 = tested on: PC-3
HT-29 = tested on: HT-29
NCI-H23 = tested on: NCI-H23
UACC-62 = tested on: UACC-62
NCI-H226 = tested on: NCI-H226
IGROV-1 = tested on: IGROV-1
TK-10 = tested on: TK-10
MOLT-4 = tested on: MOLT-4
MDA-N = tested on: MDA-N
SK-OV-3 = tested on: SK-OV-3
KM12 = tested on: KM12
786-0 = tested on: 786-0
ACHN = tested on: ACHN
NCI/ADR-RES = tested on: NCI/ADR-RES
SR = tested on: SR
SNB-75 = tested on: SNB-75
HCT-116 = tested on: HCT-116
SK-MEL-28 = tested on: SK-MEL-28
LOX IMVI = tested on: LOX IMVI
HOP-92 = tested on: HOP-92
MCF7 = tested on: MCF7
BT-549 = tested on: BT-549
SF-295 = tested on: SF-295
SN12C = tested on: SN12C
RXF 393 = tested on: RXF 393
EKVX = tested on: EKVX
NCI-H522 = tested on: NCI-H522
A549 = tested on: A549
COLO 205 = tested on: COLO 205
M14 = tested on: M14
UO-31 = tested on: UO-31
Malme-3M = tested on: Malme-3M
K562 = tested on: K562
HL-60 = tested on: HL-60
UACC-257 = tested on: UACC-257
NCI-H460 = tested on: NCI-H460
CCRF-CEM = tested on: CCRF-CEM
CAKI-1 = tested on: CAKI-1
SW-620 = tested on: SW-620
Hs-578T = tested on: Hs-578T
HOP-62 = tested on: HOP-62
U-251 = tested on: U-251
SK-MEL-5 = tested on: SK-MEL-5
SF-268 = tested on: SF-268
OVCAR-5 = tested on: OVCAR-5
RPMI-8226 = tested on: RPMI-8226
OVCAR-4 = tested on: OVCAR-4
MDA-MB-435 = tested on: MDA-MB-435
SNB-19 = tested on: SNB-19
HCT-15 = tested on: HCT-15
SK-MEL-2 = tested on: SK-MEL-2
HCC 2998 = tested on: HCC 2998

Q: Which results are given for `C/C(=C/CC[C@]1(CO)CC[C@]2(CO)[C@H](CC[C@@H]3[C@@]4(C)CC[C@H](OC5OCC(O)C(O)C5OC5OC(CO)C(O)C(O)C5O)C(C)(C)[C@@H]4CC[C@]32C)[C@H]1O)CO` (some centres not stated)?
A: GI50 (OVCAR-3): > 100 µM (inactive); GI50 (DU-145): > 100 µM (inactive); GI50 (OVCAR-8): > 100 µM (inactive); GI50 (SF-539): > 100 µM (inactive); GI50 (T47D): > 100 µM (inactive); GI50 (MDA-MB-231): > 100 µM (inactive); GI50 (A498): > 100 µM (inactive); GI50 (PC-3): > 100 µM (inactive); GI50 (HT-29): > 100 µM (inactive); GI50 (NCI-H23): > 100 µM (inactive); GI50 (UACC-62): > 100 µM (inactive); GI50 (NCI-H226): > 100 µM (inactive); GI50 (IGROV-1): > 100 µM (inactive); GI50 (TK-10): > 100 µM (inactive); GI50 (MOLT-4): > 100 µM (inactive); GI50 (MDA-N): > 100 µM (inactive); GI50 (SK-OV-3): > 100 µM (inactive); GI50 (KM12): > 100 µM (inactive); GI50 (786-0): > 100 µM (inactive); GI50 (ACHN): > 100 µM (inactive); GI50 (NCI/ADR-RES): > 100 µM (inactive); GI50 (SR): > 100 µM (inactive); GI50 (SNB-75): > 100 µM (inactive); GI50 (HCT-116): > 100 µM (inactive); GI50 (SK-MEL-28): > 100 µM (inactive); GI50 (LOX IMVI): > 100 µM (inactive); GI50 (HOP-92): > 100 µM (inactive); GI50 (MCF7): > 100 µM (inactive); GI50 (BT-549): > 100 µM (inactive); GI50 (SF-295): > 100 µM (inactive); GI50 (SN12C): > 100 µM (inactive); GI50 (RXF 393): > 100 µM (inactive); GI50 (EKVX): > 100 µM (inactive); GI50 (NCI-H522): > 100 µM (inactive); GI50 (A549): > 100 µM (inactive); GI50 (COLO 205): > 100 µM (inactive); GI50 (M14): > 100 µM (inactive); GI50 (UO-31): > 100 µM (inactive); GI50 (Malme-3M): 92.3 µM (inactive); GI50 (K562): > 100 µM (inactive); GI50 (HL-60): > 100 µM (inactive); GI50 (UACC-257): > 100 µM (inactive); GI50 (NCI-H460): > 100 µM (inactive); GI50 (CCRF-CEM): > 100 µM (inactive); GI50 (CAKI-1): > 100 µM (inactive); GI50 (SW-620): > 100 µM (inactive); GI50 (Hs-578T): > 100 µM (inactive); GI50 (HOP-62): > 100 µM (inactive); GI50 (U-251): > 100 µM (inactive); GI50 (SK-MEL-5): > 100 µM (inactive); GI50 (SF-268): > 100 µM (inactive); GI50 (OVCAR-5): > 100 µM (inactive); GI50 (RPMI-8226): > 100 µM (inactive); GI50 (OVCAR-4): > 100 µM (inactive); GI50 (MDA-MB-435): > 100 µM (inactive); GI50 (SNB-19): > 100 µM (inactive)

Q: For `O=C1c2ccccc2C2(c3ccc(Cl)cc3)NCc3ccccc3CN12` (configuration not stated), which GI50 (OVCAR-3) is on record?
A: 13.4 µM (inactive)

Q: What about the GI50 (DU-145) of the same compound?
A: 21.3 µM (inactive)

Q: And the GI50 (OVCAR-8)?
A: 23.1 µM (inactive)

Q: And the GI50 (SF-539)?
A: 16.3 µM (inactive)

Q: And the GI50 (T47D)?
A: 16.4 µM (inactive)

Q: And the GI50 (MDA-MB-231)?
A: 57.4 µM (inactive)

Q: And the GI50 (A498)?
A: 19.4 µM (inactive)

Q: What about the GI50 (PC-3) of the same compound?
A: 16.1 µM (inactive)

Q: What about the GI50 (HT-29) of the same compound?
A: 15.2 µM (inactive)

Q: And the GI50 (NCI-H23)?
A: 17.7 µM (inactive)

Q: What about the GI50 (UACC-62) of the same compound?
A: 17.3 µM (inactive)

Q: And the GI50 (IGROV-1)?
A: 24.2 µM (inactive)

Q: And the GI50 (TK-10)?
A: 31.3 µM (inactive)

Q: What about the GI50 (MOLT-4) of the same compound?
A: 24.8 µM (inactive)

Q: And the GI50 (MDA-N)?
A: 56 µM (inactive)

Q: And the GI50 (SK-OV-3)?
A: 31.2 µM (inactive)

Q: What about the GI50 (KM12) of the same compound?
A: 21.9 µM (inactive)

Q: What about the GI50 (786-0) of the same compound?
A: 13.6 µM (inactive)

Q: And the GI50 (HCT-15)?
A: 21.9 µM

Q: What about the GI50 (ACHN) of the same compound?
A: 21.6 µM (inactive)

Q: And the GI50 (NCI/ADR-RES)?
A: 14 µM (inactive)

Q: And the GI50 (SR)?
A: 24.7 µM (inactive)

Q: What about the GI50 (SNB-75) of the same compound?
A: 52.8 µM (inactive)

Q: And the GI50 (HCT-116)?
A: 10.8 µM (inactive)

Q: And the GI50 (SK-MEL-28)?
A: 25.2 µM (inactive)

Q: What about the GI50 (LOX IMVI) of the same compound?
A: 16.2 µM (inactive)

Q: What about the GI50 (HOP-92) of the same compound?
A: 19.7 µM (inactive)

Q: What about the GI50 (SK-MEL-2) of the same compound?
A: 13.7 µM (inactive)

Q: What about the GI50 (MCF7) of the same compound?
A: 17.4 µM (inactive)

Q: What about the GI50 (BT-549) of the same compound?
A: 43.1 µM (inactive)

Q: What about the GI50 (SF-295) of the same compound?
A: 18.3 µM (inactive)

Q: What about the GI50 (SN12C) of the same compound?
A: 43.4 µM (inactive)

Q: And the GI50 (RXF 393)?
A: 16.1 µM (inactive)

Q: And the GI50 (EKVX)?
A: 20.6 µM (inactive)

Q: What about the GI50 (A549) of the same compound?
A: 18.5 µM (inactive)

Q: What about the GI50 (COLO 205) of the same compound?
A: 15.1 µM (inactive)

Q: And the GI50 (M14)?
A: 18 µM (inactive)

Q: And the GI50 (UO-31)?
A: 22.5 µM (inactive)

Q: What about the GI50 (K562) of the same compound?
A: 32.9 µM (inactive)

Q: And the GI50 (HL-60)?
A: 14 µM (inactive)

Q: And the GI50 (UACC-257)?
A: 33 µM (inactive)

Q: And the GI50 (HCC 2998)?
A: 20.4 µM (inactive)

Q: What about the GI50 (NCI-H460) of the same compound?
A: 27.9 µM (inactive)

Q: What about the GI50 (CCRF-CEM) of the same compound?
A: 25.9 µM (inactive)

Q: And the GI50 (CAKI-1)?
A: 63 µM (inactive)

Q: What about the GI50 (SW-620) of the same compound?
A: 37.2 µM (inactive)

Q: What about the GI50 (Hs-578T) of the same compound?
A: 22.5 µM (inactive)

Q: What about the GI50 (HOP-62) of the same compound?
A: 15.5 µM (inactive)

Q: What about the GI50 (U-251) of the same compound?
A: 28.6 µM (inactive)

Q: And the GI50 (SK-MEL-5)?
A: 16 µM (inactive)

Q: And the GI50 (SF-268)?
A: 35.1 µM (inactive)

Q: And the GI50 (OVCAR-5)?
A: 21.7 µM (inactive)

Q: And the GI50 (RPMI-8226)?
A: 21.8 µM (inactive)

Q: What about the GI50 (OVCAR-4) of the same compound?
A: 23.7 µM (inactive)

Q: What about the GI50 (MDA-MB-435) of the same compound?
A: 26.7 µM (inactive)

Q: What about the GI50 (SNB-19) of the same compound?
A: 17 µM (inactive)
